Holding throughout (format): biochemical
In one test the target is T1, CYP2A13 (Homo sapiens, UniProt Q16696).
T1 construct: made in house; host or cells: Sf9 insect cells, recombinant baculovirus
T1 sequence (Q16696 1-494): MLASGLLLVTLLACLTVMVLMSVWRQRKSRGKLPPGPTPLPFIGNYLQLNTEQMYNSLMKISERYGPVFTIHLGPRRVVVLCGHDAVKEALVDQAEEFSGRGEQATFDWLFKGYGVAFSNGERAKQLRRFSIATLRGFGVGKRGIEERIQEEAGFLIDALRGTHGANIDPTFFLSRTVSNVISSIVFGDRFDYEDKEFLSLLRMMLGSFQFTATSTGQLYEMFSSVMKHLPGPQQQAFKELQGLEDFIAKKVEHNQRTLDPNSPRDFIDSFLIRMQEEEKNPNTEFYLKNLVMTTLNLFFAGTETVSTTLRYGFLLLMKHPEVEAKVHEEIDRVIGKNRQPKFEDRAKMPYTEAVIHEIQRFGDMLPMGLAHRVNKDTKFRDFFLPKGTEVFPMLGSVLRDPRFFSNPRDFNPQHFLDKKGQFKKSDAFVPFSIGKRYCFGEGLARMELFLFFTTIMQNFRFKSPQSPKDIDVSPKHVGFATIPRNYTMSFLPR
The experiment in a line: Evaluation of test compounds as inhibitors of CYP2A13 (coumarin to Umbelliferone, fluorescence). The settings on record: substrate coumarin 0.006 mM; microsomes with 7 pmoles CYP2A13; 60 min at 37° C.; read-out: CYP2A13 inhibitor activity IC50. The text has this:
P450 reductase is commercially available (BD Biosciences Gentest, USA).
Microsomes were used which contained 7 pmoles CYP2A13.

The target in a further test is T2, CYP2A6 (Homo sapiens, UniProt P11509).
T2 construct: purchased BD Biosciences Gentest, USA
T2 sequence (P11509 1-494): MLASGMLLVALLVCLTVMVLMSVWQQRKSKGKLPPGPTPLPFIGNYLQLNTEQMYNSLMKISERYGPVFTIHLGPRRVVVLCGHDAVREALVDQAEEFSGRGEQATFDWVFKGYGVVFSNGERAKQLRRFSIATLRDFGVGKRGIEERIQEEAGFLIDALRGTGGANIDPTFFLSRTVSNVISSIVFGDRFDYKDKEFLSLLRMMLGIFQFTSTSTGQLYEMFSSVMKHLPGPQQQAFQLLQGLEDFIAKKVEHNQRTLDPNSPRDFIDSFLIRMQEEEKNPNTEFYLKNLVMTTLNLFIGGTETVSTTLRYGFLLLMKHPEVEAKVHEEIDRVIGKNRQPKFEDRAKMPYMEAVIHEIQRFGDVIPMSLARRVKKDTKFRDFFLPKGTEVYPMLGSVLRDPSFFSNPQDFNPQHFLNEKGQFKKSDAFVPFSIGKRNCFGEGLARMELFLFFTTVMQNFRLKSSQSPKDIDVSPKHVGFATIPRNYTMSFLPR
The experiment in a line: Evaluation of test compounds as inhibitors of CYP2A6 (coumarin to Umbelliferone, fluorescence). The settings on record: substrate coumarin 0.003 mM; microsomes with 2 pmoles CYP2A6; 60 min at 37° C.; read-out: CYP2A6 inhibitor activity IC50. Here is the method: Test compounds that inhibit the activity of CYP2A6 are identified by using the same principle as described in Example 1, first paragraph.
A test compound (details see Table 2) was incubated with CYP2A6 in the presence of a cytochrome P450 reductase. CYP2A6 and P450 reductase were employed in form of microsomes (BD Biosciences Gentest, USA). Microsomes were used which contained 2 pmoles CYP2A6 and an amount of NADPH-P450 reductase corresponding to cytochrome c reductase activity of 87 nmole/(min×mg protein). […] The concentration of the standard substrate coumarin was 0.003 mM.
The samples were analysed spectrofluorometrically according to the procedure described in Example 1.

The target of the next test is T3, CYP2B6 (Homo sapiens, UniProt P20813).
T3 construct: made in house; host or cells: Sf9 insect cells, recombinant baculoviruses
T3 sequence (P20813 1-491): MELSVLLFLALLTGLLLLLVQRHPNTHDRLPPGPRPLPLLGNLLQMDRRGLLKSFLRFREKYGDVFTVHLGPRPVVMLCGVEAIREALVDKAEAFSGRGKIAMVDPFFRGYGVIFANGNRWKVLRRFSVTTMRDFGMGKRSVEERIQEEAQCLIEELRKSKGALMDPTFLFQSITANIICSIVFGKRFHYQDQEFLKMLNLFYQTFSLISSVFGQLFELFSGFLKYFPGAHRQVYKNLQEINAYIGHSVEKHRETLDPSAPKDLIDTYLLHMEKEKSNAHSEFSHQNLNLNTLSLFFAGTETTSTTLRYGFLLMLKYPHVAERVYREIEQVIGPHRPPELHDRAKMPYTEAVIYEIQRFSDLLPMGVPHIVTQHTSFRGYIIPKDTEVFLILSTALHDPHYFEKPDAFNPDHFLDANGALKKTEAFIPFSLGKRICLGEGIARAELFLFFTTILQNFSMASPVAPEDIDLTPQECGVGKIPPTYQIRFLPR
Briefly: Inhibition of human CYP2B6 (7-ethoxy-4-trifluoromethyl-coumarin, fluorescence). The following applies: substrate 7-ethoxy-4-trifluoromethyl-coumarin 6 μM; microsomes with 1.5 pmoles CYP2B6; 40 min at 37° C.; read-out: CYP2B6 inhibitor activity IC50. As to the method: Test compounds that inhibit the activity of CYP2B6 are identified by using the same principle as described in Example 1, first paragraph.
A test compound (details see Table 4) was incubated with CYP2B6 in the presence of a cytochrome P450 reductase. CYP2B6 and P450 reductase are produced using recombinant baculoviruses and co-expressing the two proteins in Sf9 insect cells as described in Example 1. Alternatively, microsomes containing CYP2B6 and the reductase are commercially available (BD Biosciences Gentest, USA). Microsomes were used which contained 1.5 pmoles CYP2B6. Potassium phosphate buffer final concentration was 100 mM, (1M stock, pH 7.4). […] The concentration of the standard substrate 7-ethoxy-4-trifluoromethyl-coumarin was 6 μM. […] The samples were incubated for 40 min at 37° C.

One may read the IC50 as the concentration that inhibits the measured activity by half. Regarding `CCCC/C(=C\C1CC1)C(C)=O` [Compound ID 1, (E)-3-(cyclopropylmethylene)heptan-2-one], the results for the half-inhibitory concentration (IC50) at CYP2A13, at CYP2A6 and on CYP2B6 were 0.5 µM, 3 µM and 3.9 µM, respectively.
Regarding `CCCCCC(Cc1ccccc1)C(C)=O` (stereo not shown) [Compound ID 4, 3-phenylmethyloctan-2-one], the IC50 was 4.8 µM on CYP2A13 and 148 µM at CYP2A6.
As to `CCCCCC/C(=C\C1CC1)C(C)=O` [Compound ID 2, (E)-3-(cyclopropylmethylene)nonan-2-one], the IC50 worked out at 1.1 µM at CYP2A13, 8 µM on CYP2A6 and 3.5 µM on CYP2B6.
For `CCCCC/C(=C\C1CC1)C(C)=O` [Compound ID 3, (E)-3-(cyclopropylmethylene)octan-2-one], the 50% inhibitory concentration (IC50) on CYP2A13 stood at 0.3 µM; on CYP2A6, 7 µM; on CYP2B6, 4 µM.
As for `CCCCC/C(=C\c1ccccc1)C(C)=O` [Compound ID 5, (E)-3-benzylideneoctan-2-one], the IC50 was 0.6 µM at CYP2A13 and 141 µM on CYP2A6.

For the origin of these results see patent US20100111888A1, “Organic Compounds and Compositions Having the Ability to Modulate Fragrance Compositions” (GIVAUDAN SA, priority 2007, published 2010).
